Consider one compound from article PMC4109385 (BMC Microbiology, 2014).

Molecules are shown by their SMILES.

The target of the experiment is ClpC (with MecA) (Streptococcus mutans, UniProt Q8DS14). The following applies: 2 mM ATP, 5 mM MgCl2, 100 mM KCl, 25 mM Tris-HCl pH 8.0, 37 °C; 0.3 uM proteins; MecA present.
Chain of ClpC (with MecA) (Q8DW33 whole entry): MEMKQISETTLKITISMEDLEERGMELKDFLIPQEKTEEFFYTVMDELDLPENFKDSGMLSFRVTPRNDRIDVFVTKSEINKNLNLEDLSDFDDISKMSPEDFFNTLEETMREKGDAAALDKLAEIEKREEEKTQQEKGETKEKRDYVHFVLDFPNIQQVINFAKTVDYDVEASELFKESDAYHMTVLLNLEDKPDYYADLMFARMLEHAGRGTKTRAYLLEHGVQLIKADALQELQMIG
Chain of ClpC (with MecA) (Q8DS14 entry or part of it): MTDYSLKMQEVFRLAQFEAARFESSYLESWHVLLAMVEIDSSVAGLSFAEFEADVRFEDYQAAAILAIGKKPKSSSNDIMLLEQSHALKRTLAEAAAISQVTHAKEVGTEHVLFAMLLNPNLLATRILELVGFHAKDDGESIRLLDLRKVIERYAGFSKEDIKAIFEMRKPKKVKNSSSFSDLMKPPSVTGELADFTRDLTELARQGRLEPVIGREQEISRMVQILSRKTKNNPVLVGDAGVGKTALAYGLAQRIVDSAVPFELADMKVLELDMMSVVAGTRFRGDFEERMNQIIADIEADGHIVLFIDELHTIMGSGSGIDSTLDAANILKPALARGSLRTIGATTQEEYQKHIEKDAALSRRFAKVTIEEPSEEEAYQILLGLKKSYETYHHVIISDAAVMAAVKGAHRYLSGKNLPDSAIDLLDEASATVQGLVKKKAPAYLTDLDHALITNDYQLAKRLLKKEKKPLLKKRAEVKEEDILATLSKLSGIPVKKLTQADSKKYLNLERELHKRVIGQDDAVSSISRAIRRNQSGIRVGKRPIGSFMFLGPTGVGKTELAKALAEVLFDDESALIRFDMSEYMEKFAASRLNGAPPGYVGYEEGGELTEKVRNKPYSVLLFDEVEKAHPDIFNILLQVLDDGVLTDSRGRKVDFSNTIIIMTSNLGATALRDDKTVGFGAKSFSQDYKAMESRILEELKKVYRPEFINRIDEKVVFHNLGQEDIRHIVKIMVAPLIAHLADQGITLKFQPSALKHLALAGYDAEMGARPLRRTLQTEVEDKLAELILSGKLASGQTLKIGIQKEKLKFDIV

For the compound `Nc1ncnc2c1ncn2[C@@H]1O[C@H](COP(=O)(O)OP(=O)(O)OP(=O)(O)O)[C@@H](O)[C@H]1O` [ATP], the “malachite green ATPase assay (released orthophosphate)” value is on record as “the presence of MecA increased the ATPase activity of ClpC (Figure 6A)”.
